Experimental data as given in patent US20220031797A1, “PHARMACEUTICAL COMPOSITIONS CONTAINING HYALURONIC ACID AND CARNOSINE AND RELATIVE USE” (FIDIA FARMACEUTICI S.P.A., priority 2017, published 2022).

System: Monosodium Iodoacetate (MIA) Osteoarthritis in Rats
Assay: MIA-induced osteoarthritis in rats, oral treatment, histological evaluation (modified Mankin score)
Format: in vivo
Settings: oral every 24 hours day 3-20, conjugate of Example 2 (35% mol/mol) 88.5 mg/kg, mixture 16.2 mg/kg carnosine + 72.3 mg/kg HA, naproxen 10 mg/kg, day 21, versus MIA-control, FIG. 7
Experimental: OA was induced in the posterior knee joints of the rats being tested, by the intra-articular injection of MIA: 25 μl of saline containing 1 mg/kg of MIA were injected into the joint (knee) of the right paw of each animal (under treatment) through the infrapatal ligament, whereas the left joint received an equal volume of saline 0.9% (Sagar D R et al, Ann. Rheum. Dis., 2013, 73: 1558-1565).
Male Sprague-Dawley rats, of about 230 g each, were used, 20 rats per group.
Group 1: MIA-control: the animals were treated by MIA induction and subsequently with distilled water administered orally every 24 hours from the 3rd day after MIA until the 20th day, end of the experimentation.
Group 2: MIA+HA/carnosine conjugate: the animals were treated by MIA induction and subsequently with the above-mentioned conjugate every 24 hours from the 3rd day after MIA until the 20th day. The conjugate used for the experimentation was prepared according to Example 2, it was then derivatized at 35% mol/mol, the dose, administered orally, was equal to 88.5 mg/kg of conjugate (16.2 mg of carnosine and 72.3 mg of HA).
Group 3: MIA+HA/carnosine mixture: the animals were treated by MIA induction and subsequently with HA/carnosine every 24 hours starting from the 3rd day after MIA up to the 20th day. […]

With `COc1ccc2cc([C@H](C)C(=O)O)ccc2c1` [naproxen] the “Histological evaluation (modified Mankin Histological score 0-12; histological damage and cartilage degeneration)” value was “totally comparable to the effect elicited by naproxen”.
